# Data published in article PMC6440977, “Nucleoside analogue activators of cyclic AMP-independent protein kinase A of Trypanosoma” (Nature Communications, 2019).
# Several values for one entry are separate records, joined by “and”; a condition that tells them apart may be missing. Equal entries are not always repeated. Where two headings read alike, the source gives them in different places.
# How the values were obtained:
# T. brucei PKA = T. brucei PKA (Trypanosoma brucei brucei, UniProt Q9GU80); experiment: In vivo PKA reporter assay (VASP Ser-157 phosphorylation, western blot); type: cell-based;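 further: T. brucei cells expressing human VASP as heterologous PKA substrate, compound exposure at 37 °C, western blot of phospho (50 kDa) versus unphosphorylated (46 kDa) VASP band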
# T. brucei PKAR(199–499) = T. brucei PKAR(199–499) (Trypanosoma brucei, UniProt Q9GU80); experiment: biochemical; type: binding; parameters: Thermodynamics (ITC) -TΔS / Thermodynamics (ITC) ΔG / Thermodynamics (ITC) ΔH: unit: kcal/mol
# human PKARIα = target: T1, human PKARIα (Homo sapiens, UniProt P10644); experiment: Binding by isothermal titration calorimetry (ITC)
# T1 construct: The full length ORFs (amplified with primers introducing the respective); 6xHis followed by TEV site (N); made in house; host or cells: E. coli Rosetta D3
# [1] = test system: T. brucei ∆pkar/∆pkar (pkar KO) cells; experiment: microbe, parasite or virus in culture; type: cell-based, Trypanosoma brucei; conditions: Trypanosoma brucei
# [2] = test system: RXXS*/T* site phosphorylation; experiment: Western blot of global RXXS*/T* site phosphorylation (phospho-PKA substrate antibody); type: cell-based, Trypanosoma brucei; conditions: wild type, 2 µM, 10 min
# metacaspase 4 (MCA4) = type: cell-based, Trypanosoma brucei; conditions: for MCA4 counts / MCA4 normalized / MCA4 fold change: 4 µM; for MCA4 normalized: normalized to PFR-A/C; for MCA4 fold change: untreated WT set to 1
# PKAR = experiment: Western blot quantification of protein abundance, PKAR; type: cell-based, Trypanosoma brucei; conditions: WT cells, normalized to PFR, WT 0h set to 1, individual replicates
# Text: Replicate 1 Replicate 2 Replicate 3 PKAR
# WT pkar KOWT pkar KO pkar WTKO1.0PKAC1/2 […]
# (a) Samples prepared for quantitative proteome analysis: PKAR and PKAC1/2 protein levels (top Western panels, red) and RXXS*/T* phos-phorylation (bottom Western panels, phospho-specific anti-RXXS*/T*, red) are quantified as summarized in the column charts next to the Western blots. The scanned values were normalized to the loading control (PFR-A/C, green) and the untreated wild type sample was set to 1. Wild type (WT) and ∆pkar/∆pkar (pkar KO) cells were treated with 7-CN-7-C-Ino (Ino) for the indicated time (PKAR/PKAC1 expression) or for 10 min (RXXS*/T* phosphorylation). Error bars represent SD of three independent experiments.
# >1.5 fold (vertical dashed lines) with a p-value of <0.05 (Welch’s t-test, two-sided) are labeled as blue dots with their TriTrypDB IDs.
# Source data are provided as a Source Data file.
# (also on this page, place not known: WT -Log10 WT6 -Log KO6 2 4 KO -1 / KO0 -Log10 p-value KO12 / KO0 2 4 10 WT (b) p-value p-value 2 4 -Log10 p-value / WT0 -1 0 1 WT12 / WT0 Fold expression 0 0 WT KO 1.0 PKAC1/2 WT pkar KO + - 0 1 2 4 Fold RXXS/T phosphorylation 11) […]
# For Western blot analysis14, the primary antibodies anti-PKAR7 (1:500), anti - […]
# (ThermoFisher, catalogue number A27042, 1:5000) were used for detection using the OdysseyTM IR fluorescence scanning system. […]
# Sequence of T. brucei PKAR(199–499) (Q9GU80 entry or part of it): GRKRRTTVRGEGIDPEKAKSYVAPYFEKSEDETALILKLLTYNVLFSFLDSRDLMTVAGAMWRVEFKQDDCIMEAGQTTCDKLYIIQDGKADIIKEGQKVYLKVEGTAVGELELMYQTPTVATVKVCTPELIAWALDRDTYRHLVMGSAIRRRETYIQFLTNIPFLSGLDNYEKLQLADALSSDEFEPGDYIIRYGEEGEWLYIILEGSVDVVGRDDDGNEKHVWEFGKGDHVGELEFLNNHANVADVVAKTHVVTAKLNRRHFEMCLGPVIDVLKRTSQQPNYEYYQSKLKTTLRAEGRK
# Sequence of T. brucei PKA (Q38DS1 entry or part of it): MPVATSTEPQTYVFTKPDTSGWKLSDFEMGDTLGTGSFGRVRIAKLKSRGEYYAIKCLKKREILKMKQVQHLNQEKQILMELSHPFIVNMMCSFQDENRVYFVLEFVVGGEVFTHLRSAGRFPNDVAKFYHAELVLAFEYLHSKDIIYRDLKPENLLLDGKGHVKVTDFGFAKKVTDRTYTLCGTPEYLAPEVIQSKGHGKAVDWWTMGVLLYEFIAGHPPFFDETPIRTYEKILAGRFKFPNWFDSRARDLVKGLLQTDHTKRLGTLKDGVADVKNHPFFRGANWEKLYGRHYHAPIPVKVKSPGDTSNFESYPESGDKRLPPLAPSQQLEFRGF
# Sequence of T. brucei PKA (Q38DR5 entry or part of it, further chain): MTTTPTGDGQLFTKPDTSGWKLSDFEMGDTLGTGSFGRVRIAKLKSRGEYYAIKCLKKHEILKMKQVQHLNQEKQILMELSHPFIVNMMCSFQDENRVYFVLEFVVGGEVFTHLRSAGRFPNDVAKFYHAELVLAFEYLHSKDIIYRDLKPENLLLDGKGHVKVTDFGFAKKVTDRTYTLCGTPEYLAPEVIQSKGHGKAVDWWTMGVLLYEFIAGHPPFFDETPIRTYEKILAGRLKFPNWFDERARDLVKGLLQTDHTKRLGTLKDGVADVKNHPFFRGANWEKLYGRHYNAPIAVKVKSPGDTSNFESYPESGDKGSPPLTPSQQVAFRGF
# Sequence of T. brucei PKA (Q9GU80 entry or part of it): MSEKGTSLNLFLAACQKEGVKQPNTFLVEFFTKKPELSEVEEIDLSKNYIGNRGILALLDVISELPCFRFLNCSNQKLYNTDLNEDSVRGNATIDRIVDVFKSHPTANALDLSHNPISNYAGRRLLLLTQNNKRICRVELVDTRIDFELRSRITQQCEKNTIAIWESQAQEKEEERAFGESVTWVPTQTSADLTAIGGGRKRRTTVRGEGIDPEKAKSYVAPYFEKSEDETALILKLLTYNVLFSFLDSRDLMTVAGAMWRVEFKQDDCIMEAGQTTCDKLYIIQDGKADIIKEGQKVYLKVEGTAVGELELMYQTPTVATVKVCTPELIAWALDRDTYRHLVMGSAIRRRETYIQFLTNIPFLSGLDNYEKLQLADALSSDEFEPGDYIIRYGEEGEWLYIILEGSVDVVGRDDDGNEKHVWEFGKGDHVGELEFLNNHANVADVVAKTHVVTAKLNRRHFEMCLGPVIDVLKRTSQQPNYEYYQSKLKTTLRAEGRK
# T1 sequence (P10644 whole entry): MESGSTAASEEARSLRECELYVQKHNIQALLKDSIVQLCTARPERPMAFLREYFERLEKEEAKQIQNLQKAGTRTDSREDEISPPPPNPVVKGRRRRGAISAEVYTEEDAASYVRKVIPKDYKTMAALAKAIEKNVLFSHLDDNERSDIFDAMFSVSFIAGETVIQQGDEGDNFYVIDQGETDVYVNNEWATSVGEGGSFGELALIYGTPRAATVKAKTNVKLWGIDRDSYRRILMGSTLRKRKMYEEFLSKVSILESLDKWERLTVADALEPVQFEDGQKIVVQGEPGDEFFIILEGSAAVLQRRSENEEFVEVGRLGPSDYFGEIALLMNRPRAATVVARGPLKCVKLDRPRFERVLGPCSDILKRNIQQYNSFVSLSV
smiles,measurement,setting,value
"N#Cc1cn([C@@H]2O[C@H](CO)[C@@H](O)[C@H]2O)c2ncnc(O)c12 [7-CN-7-C-Ino, 7-Cyano-7-deazainosine]","VASP phosphorylation in PKAC3 deletion + PKAC1/2 RNAi cell line, in words","T. brucei PKA; 4 µM, 15 min",undetectable
same,EC50,"T. brucei PKA; read-out: EC50 in vivo PKA assay, VASP reporter, 15 min treatment, mean ± SD",0.838 ± 0.139 µM
same,Kd,"T. brucei PKAR(199–499); 298 K, mean ± SD, n=3, read-out: KD in vitro binding to PKAR (ITC)",0.008 ± 0.002 µM
same,−TΔS (entropic component of binding),"T. brucei PKAR(199–499); ITC, mean",-9.62 kJ/mol
same,Thermodynamics (ITC) -TΔS,T. brucei PKAR(199–499); independent replicates,-2.82 and -2.13 and -1.91
same,Thermodynamics (ITC) ΔG,T. brucei PKAR(199–499); independent replicates,-11.3 and -10.9 and -11
same,Thermodynamics (ITC) ΔH,T. brucei PKAR(199–499); independent replicates,-8.48 and -8.8 and -9.1
same,Molar ratio of binding (ITC),"T. brucei PKAR(199–499); ligand to protein, mean ± SD, n=3",2 ± 0.2
same,higher binding affinity to PKAR compared to Toyo,T. brucei PKAR(199–499); ratio of KD,7 fold
same,"binding to purified human PKARIα, in words",human PKARIα,did not bind
same,IC50,"[1]; 72 h, read-out: IC50 growth pkar KO",≥ 125 µM
same,EC50,"[1]; read-out: EC50, Alamar blue cell viability assay, KO, individual replicate results, pkar KO cells, fit ambiguous, bound given in µM",> 125 µM
same,increase in global RXXS*/T* site phosphorylation,[2],3–4 fold
same,"Western quantification, KO + Ino","metacaspase 4 (MCA4); KO cells + Ino, normalized to PFR, WT set to 1, individual replicates, protein not given",0.3769 and 0.643 and 0.8892
same,"Western quantification, WT + Ino","metacaspase 4 (MCA4); WT cells + Ino, normalized to PFR, WT set to 1, individual replicates, protein not given",3.707 and 4.121 and 2.558
same,MCA4 counts,"metacaspase 4 (MCA4); WT, 12 h",9.21
same,MCA4 normalized,"metacaspase 4 (MCA4); WT, 12 h",5.616
same,MCA4 fold change,"metacaspase 4 (MCA4); WT, 12 h",0.3804
same,MCA4 counts,"metacaspase 4 (MCA4); WT, 18 h",7.41
same,MCA4 normalized,"metacaspase 4 (MCA4); WT, 18 h",5.37
same,MCA4 fold change,"metacaspase 4 (MCA4); WT, 18 h",0.3637
same,MCA4 counts,"metacaspase 4 (MCA4); WT, 24 h",7.18
same,MCA4 normalized,"metacaspase 4 (MCA4); WT, 24 h",4.603
same,MCA4 fold change,"metacaspase 4 (MCA4); WT, 24 h",0.3117
same,MCA4 counts,"metacaspase 4 (MCA4); pkar KO, 12 h",8.83
same,MCA4 normalized,"metacaspase 4 (MCA4); pkar KO, 12 h",0.3995
same,MCA4 fold change,"metacaspase 4 (MCA4); pkar KO, 12 h",0.8235
same,MCA4 counts,"metacaspase 4 (MCA4); pkar KO, 18 h",9.5
same,MCA4 normalized,"metacaspase 4 (MCA4); pkar KO, 18 h",0.5278
same,MCA4 fold change,"metacaspase 4 (MCA4); pkar KO, 18 h",1.088
same,MCA4 counts,"metacaspase 4 (MCA4); pkar KO, 24 h",10.63
same,MCA4 normalized,"metacaspase 4 (MCA4); pkar KO, 24 h",0.3562
same,MCA4 fold change,"metacaspase 4 (MCA4); pkar KO, 24 h",0.7342
same,"MCA4 abundance, in words","metacaspase 4 (MCA4); wild type, 12 h post induction",decreased
same,PKAR Western quantification,PKAR; 6 h treatment,0.8653 and 0.7031 and 1.455
same,PKAR Western quantification,PKAR; 12 h treatment,0.7135 and 0.7185 and 1.457
